Source: patent publication US7109177B2, “Methods and compositions for the manufacture of C-3′ and C-4′ anthracycline antibiotics” (Houston Pharmaceuticals, Inc., priority 1999, dated 2006)
“And” between values parts separate entries of the source, which are not always exact repeats. Equal values may be shown once. Read-outs that look alike come from different tables or passages of the source.

What was measured:
[1] = test system: breast tumors; assay: In vivo prevention of tumor development in a mouse cancer model; details: compared with buffer-treated control mice that develop tumors
Method: In an initial round of in vivo trials, a mouse model of human cancer with the histologic features and metastatic potential resembling tumors seen in humans (Katsumata et al., 1995) is used. The animals are treated with analogs of anthracyclines having C-3′-substitutions as described or anthracycline analogs with C-4′-substitutions synthesized in the present invention to determine the suppression of tumor development.
Two groups of mice of a suitable cancer model are treated with doses of substituted anthracyclines with substitutions at the C-3′-sugar or having C-4′-substituted sugar moietied. Several combinations and concentrations of the substituted anthracyclines are tested. Control mice are treated with buffer only.
The effect of substituted anthracyclines on the development of breast tumors is compared with the control group by examination of tumor size and histopathologic examination (breast tissue is cut and stained with hematoxylin and eosin) of breast tissue.

[2] = test system: sensitive and MDR tumor cell lines; assay: In vitro evaluation of cytotoxicity compared with DOX (cell line not given); type: cell-based, human; details: for Cytotoxicity compared to DOX, in words: in vitro evaluation; for Direct comparison of cytotoxicity with DOX, in words: effect of C-3′ and C-4′ substitutions on potency
Method: (§1) In vitro drug cytotoxicities against human breast carcinoma wild-type MCF-7 and MRP-resistant MCF-7NP-16 cells were assessed by using the […], as previously reported (Green et al., 1984). […] Drugs were then added to the wells to achieve a final drug concentration ranging from 0.1 to 50 μg/mL. Four wells were used for each concentration. […] After a 4-hour incubation, 100 μL of buffer containing 50% N,N-dimethylformamide and 20% SDS was added to solubilize the MTT formazan. […] Results and Discussion
(§2) Thus, for the in vitro evaluation of substituted anthracyclines having C-3′ alkylated anthracyclines modified at benzyl ring and having 4′-substituted-benzylated anthracyclines, the inventors selected two sensitive cell lines: a human carcinoma KB and MCF-7 human breast cancer, the multi-drug-resistant (MDR) counterpart of KB (KBV1 carcinoma), which overexpresses MDR1 gene that encodes a membrane transport glycoprotein (P-gp), the MCF-7NVP-16 cell line that overexpresses the multi-drug-resistant associated protein (MRP), and the MCF-7/dox cell line which overexpresses MDR1 gene.

[3] = test system: human carcinoma KB cells; assay: MTT cytotoxicity assay, sensitive KB cells; type: cell-based
Method: as §1, §2

[4] = test system: CEM leukemic cells; assay: Quantitative apoptotic DNA fragmentation assay; type: cell-based; details: 24 h incubation
Description: Results are from two independent studies carried out in duplicate.

[5] = test system: MCF-7/DOX cells; assay: MTT cytotoxicity assay, MCF-7/DOX cells (MDR1)
[6] = test system: MCF-7/VP-16 cells
Method: Compounds synthesized using the methods described above were tested using a standard MTT. assay (Green et al., 1984) against human carcinoma sensitive (KB) and multi drug-resistant (KBV1) cells and MCF-7 and MCF-7/VP-16 resistant cells characterized as having the MRP (multi-drug resistant associated protein) phenotype.
In vitro drug cytotoxicities against human breast carcinoma wild-type MCF-7 and MRP-resistant MCF-7NP-16 cells were assessed by using the MT reduction assay, as previously reported (Green et al., 1984). […] Drugs were then added to the wells to achieve a final drug concentration ranging from 0.1 to 50 μg/mL. Four wells were used for each concentration. […] After a 4-hour incubation, 100 μL of buffer containing 50% N,N-dimethylformamide and 20% SDS was added to solubilize the MTT formazan.

[7] = test system: KB-V1 (KBV1) carcinoma cells; assay: MTT cytotoxicity assay, multi-drug-resistant KB-V1 cells (MDR1/P-gp); type: cell-based, human; design: ID50 KBV1: unit not given here; details: for Effectiveness as measured by resistance index (RI), in words: in vitro, compared with daunorubicin or doxorubicin
Method: as §1, §2

[8] = test system: human breast carcinoma MCF-7 cells; design: unit not given beside the values
[9] = Table 2, MTT assay, mean of at least 4 experiments

In the case of `CCCCC(=O)OCC(=O)[C@]1(O)Cc2c(O)c3c(c(O)c2[C@@H](O[C@H]2C[C@H](O)[C@H](OCc4ccccc4)[C@H](C)O2)C1)C(=O)c1c(OC)cccc1C3=O` [WP571, 3-deamino-4-O-benzyl-3-O-hydroxy-14-O-pentanoyl-doxorubicin], the “Tumor development in treated mice, predicted” value (shortened to “Tumor development … predicted”) [1] is reported as “resistant to tumor development” and the “Cytotoxicity compared to DOX, in words” value [2] is reported as “unusually potent cytotoxic agents”.
`COc1cccc2c1C(=O)c1c(O)c3c(c(O)c1C2=O)C[C@@](O)(C(=O)CO)C[C@@H]3O[C@H]1C[C@H](N)[C@H](O)[C@H](C)O1` [DOX, doxorubicin, reference compound] was tested, and the “ID50 KB” value [3, 9] was 0.50 ± 0.0 µg/mL and 0.43 ± 0.19 µg/mL, the “ID50 KB” value ([3]; Table 3, EXP. 1) was 2.35 and the “Fragmented DNA, % Total DNA” value ([4]; 0.1 μM) was −0.2%. For the same compound, the “Fragmented DNA, % Total DNA” value ([4]; 0.5 μM) was 27.1%, the “Fragmented DNA, % Total DNA” value ([4]; 1 μM) was 28.7% and the “Fragmented DNA, % Total DNA” value ([4]; 2 μM) was 38.3%. The “ID50 MCF-7/DOX” value ([5]; Table 3, EXP. 1) was over 100, the “RI (MCF-7/DOX vs MCF-7)” value ([5]; Table 3, EXP. 1) was over 333 and the “ID50 MCF-7/DOX” value ([5]; Table 3, under EXP. 2) was over 100. The “RI (MCF-7/DOX vs MCF-7)” value ([5]; Table 3, under EXP. 2) was over 189, the “ID50 MCF-7/VP-16” value ([6]; Table 3, EXP. 1) was 3.0 and the “RI (MCF-7/VP-16 vs MCF-7)” value ([6]; Table 3, EXP. 1) was 10. For the same compound, the “ID50 MCF-7/VP-16” value ([6]; Table 3, under EXP. 2) was 8.3 ± 0.5 and 6.87 ± 0.58, the “RI (MCF-7/VP-16 vs MCF-7)” value ([6]; Table 3, under EXP. 2) was 16.6 and 13 and the “ID50 KB-V1” value [7, 9] was >100 µg/mL and 109 ± 28 µg/mL. For the same compound, the “RI (resistance index) KB-V1 vs KB” value ([7]; Table 2, higher RI = less effective against MDR) was over 200, the “ID50 KBV1” value ([7]; Table 3, EXP. 1) was over 100 and the “RI (KBV1 vs KB)” value ([7]; Table 3, EXP. 1) was over 42.6. The “ID50 KBV1” value ([7]; Table 3, under EXP. 2) was 174 ± 32 and >100, the “ID50 MCF-7” value ([8]; Table 3, EXP. 1) was 0.3 and the “ID50 MCF-7” value ([8]; Table 3, under EXP. 2) was 0.50 ± 0.26 and 0.53 ± 0.25.
`COc1cccc2c1C(=O)c1c(O)c3c(c(O)c1C2=O)C[C@@](O)(C(=O)CO)C[C@@H]3O[C@H]1C[C@H](N)[C@@H](OCc2ccccc2)[C@H](C)O1` [WP750, 4′-O-Benzyl-4′epi-doxorubicin] was tested, and the “ID50 KB” value ([3]; Table 3, under EXP. 2) was 6.4, the “Tumor development … predicted” value [1] was “resistant to tumor development” and the “Direct comparison of cytotoxicity with DOX, in words” value [2] was “drastically increase the potency”. The “Cytotoxicity compared to DOX, in words” value [2] was “unusually potent cytotoxic agents”, the “ID50 KBV1” value ([7]; Table 3, under EXP. 2) was 56 ± 29 and the “RI (KBV1 vs KB)” value ([7]; Table 3, under EXP. 2) was 8.8. For the same compound, the “Effectiveness as measured by resistance index (RI), in words” value [7] was “significantly more effective”.
With `CC(=O)[C@]1(O)Cc2c(O)c3c(c(O)c2[C@@H](O[C@H]2C[C@H](N)[C@H](OCc4ccc(F)cc4)[C@H](C)O2)C1)C(=O)c1ccccc1C3=O` [WP797, 4′-(4-Fluoro-benzyloxy)-4-demethoxydaunorubicine] the “Tumor development … predicted” value [1] was “resistant to tumor development” and the “Cytotoxicity compared to DOX, in words” value [2] was “unusually potent cytotoxic agents”.
In the case of `COc1cccc2c1C(=O)c1c(O)c3c(c(O)c1C2=O)C[C@@](O)(C(=O)CO)C[C@@H]3O[C@H]1C[C@H](N)[C@H](OCc2ccccc2)[C@H](C)O1` [WP744, 4′-O-Benzyl-doxorubicin], the “ID50 KB” value ([3]; Table 3, EXP. 1) is reported as 1.44 ± 0.45, the “Fragmented DNA, % Total DNA” value ([4]; 0.05 μM) is reported as 17.8% and the “Fragmented DNA, % Total DNA” value ([4]; 0.1 μM) is reported as 31.3%. For the same compound, the “Fragmented DNA, % Total DNA” value ([4]; 0.5 μM) was 46.7%, the “ID50 MCF-7/DOX” value ([5]; Table 3, EXP. 1) was 5.25 and the “RI (MCF-7/DOX vs MCF-7)” value ([5]; Table 3, EXP. 1) was 3.22. The “ID50 MCF-7/DOX” value ([5]; Table 3, under EXP. 2) was 0.89 ± 0.10, the “RI (MCF-7/DOX vs MCF-7)” value ([5]; Table 3, under EXP. 2) was 2.41 and the “Tumor development … predicted” value [1] was “resistant to tumor development”. For the same compound, the “ID50 MCF-7/VP-16” value ([6]; Table 3, EXP. 1) was 2.3 ± 1.9, the “RI (MCF-7/VP-16 vs MCF-7)” value ([6]; Table 3, EXP. 1) was 1.41 and the “RI (MCF-7/VP-16 vs MCF-7)” value ([6]; Table 3, under EXP. 2) was 1.4 and 1.6. For the same compound, the “Cytotoxicity compared to DOX, in words” value [2] was “unusually potent cytotoxic agents”, the “ID50 KBV1” value ([7]; Table 3, EXP. 1) was 2.76 ± 0.52 and the “RI (KBV1 vs KB)” value ([7]; Table 3, EXP. 1) was 1.84. For the same compound, the “ID50 KBV1” value ([7]; Table 3, under EXP. 2) was 2.1 ± 0.5 and 4.07 ± 1.85, the “Effectiveness as measured by resistance index (RI), in words” value [7] was “significantly more effective” and the “ID50 MCF-7” value ([8]; Table 3, EXP. 1) was 1.63 ± 0.5.
For `COc1cccc2c1C(=O)c1c(O)c3c(c(O)c1C2=O)C[C@@](O)(C(=O)CO)C[C@@H]3O[C@H]1C[C@H](O)[C@H](OCc2ccccc2)[C@H](C)O1` [WP727, 4-O-benzyl-3-deamino-3-hydroxy-doxorubicin], the “Tumor development … predicted” value [1] was “resistant to tumor development” and the “Cytotoxicity compared to DOX, in words” value [2] was “unusually potent cytotoxic agents”.
In the case of `C[C@@H]1O[C@H](O[Si](C)(C)C(C)(C)C)C[C@H](N=[N+]=[N-])[C@@H]1O` [WP418, t-Butyldimethylsilyl 3-azido- -2,3,6-trideoxy-β-L-lyxo hexapyranose], the “Tumor development … predicted” value [1] is reported as “resistant to tumor development”.
`CC(=O)[C@]1(O)Cc2c(O)c3c(c(O)c2[C@@H](O[C@H]2C[C@H](N)[C@H](OCc4ccccc4)[C@H](C)O2)C1)C(=O)c1ccccc1C3=O` [WP783, 4′-O-Benzyl-4-demethoxydaunorubicin] was tested, and the “ID50 KB” value ([3]; Table 3, under EXP. 2) was 0.43 ± 0.21, the “Tumor development … predicted” value [1] was “resistant to tumor development” and the “Direct comparison of cytotoxicity with DOX, in words” value [2] was “drastically increase the potency”. The “Cytotoxicity compared to DOX, in words” value [2] was “unusually potent cytotoxic agents”, the “ID50 KBV1” value ([7]; Table 3, under EXP. 2) was 1.1 ± 0.8 and the “RI (KBV1 vs KB)” value ([7]; Table 3, under EXP. 2) was 2.6. For the same compound, the “Effectiveness as measured by resistance index (RI), in words” value [7] was “significantly more effective”.
With `COc1cccc2c1C(=O)c1c(O)c3c(c(O)c1C2=O)C[C@@](O)(C(=O)CO)C[C@@H]3O[C@H]1C[C@H](N)[C@H](OCc2c(F)cccc2F)[C@H](C)O1` [WP799, 4′-(2,6-difluoro-benzyloxy)-doxorubicine] the “Tumor development … predicted” value [1] was “resistant to tumor development” and the “Cytotoxicity compared to DOX, in words” value [2] was “unusually potent cytotoxic agents”.
`CC(=O)O[C@H]1[C@@H](N=[N+]=[N-])C[C@@H](O[Si](C)(C)C(C)(C)C)O[C@H]1C` [WP417, 4-O-acetyl-3-Azido-1-O-t-butyldimethylsilyl-2,3,6-trideoxy-β-L-lyxo hexapyranose] was tested, and the “Tumor development … predicted” value [1] was “resistant to tumor development”.
